# Measurements taken from patent US10800791B2, “Triazole ACC inhibitors and uses thereof” (Gilead Apollo, LLC, priority 2015, dated 2020).
# Like-named read-outs stand apart in the source and are kept apart here.
# Legend:
# [1] = test system: Collectotrichum graminicola (Cg); assay: Growth inhibition assay of fungal pathogens, Cg; assay type: cell-based; details: 48 h
# Outline: (§1)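 Inhibition percentages reflect 48 h OD600 and visual scores relative to a 2% DMSO control. Test concentrations were 50, 10, 2 ppm or 2, 0.4, 0.08 ppm final, applied to spores in 17% V8 medium.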
# [2] = test system: Botrtyis cinerea (Bc); assay: Growth inhibition assay of fungal pathogens, Bc; assay type: cell-based; details: 48 h
# Outline: as §1
# [3] = test system: Phytophthora capsici (Pc); assay: Growth inhibition assay of fungal pathogens, Pc; assay type: cell-based; details: 48 h
# Outline: as §1
# [4] = test system: C. albicans; assay: Antifungal Activity Assay (broth microtiter MIC), C. albicans; assay type: cell-based, Candida albicans; details: Candida albicans, ATCC90028, 48 h
# Outline: (§2)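 MIC read by eye at 48 h, comparing challenged wells with the growth control. Yeasts grown overnight on Sabouraud dextrose agar at 35° C, suspended in RPMI 1640+MOPS and added at 2.5×10^3 CFU/mL final, following CLSI M27-A3.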
# [5] = test system: C. parapsilosis; assay: Antifungal Activity Assay (broth microtiter MIC), C. parapsilosis; assay type: cell-based, Candida parapsilosis; details: Lodderomyces parapsilosis, ATCC22019, 48 h
# Outline: as §2
# [6] = test system: Rhizoctonia solani (Rs); assay: Growth inhibition assay of fungal pathogens, Rs; assay type: cell-based; details: 48 h
# [7] = test system: Diplodia maydis (Dm); assay: Growth inhibition assay of fungal pathogens, Dm; assay type: cell-based; details: Stenocarpella maydis, 48 h
# Outline: as §1
# [8] = target: fungal (fACC2) (UniProt Q00955); details: read-out: fACC2 (in vitro ACC2 Inhibition Assay, IC50), ADP-Glo, 5 nM ACC2, 20 μM ATP, 20 μM acetyl-CoA
# [9] = target: human (hACC2) (Homo sapiens, UniProt O00763); assay: In vitro ACC inhibition assay (ADP-Glo), hACC2; assay type: biochemical; details: 5 nM ACC2, 20 μM ATP, 20 μM acetyl-CoA
# Experimental: The detailed procedure is as follows. […] 10 μL ADP glo reagent was added. […] 20 μL kinase detection reagent was added.
# [10] = test system: Septoria tritici (St); assay: Growth inhibition assay of fungal pathogens, St; assay type: cell-based; details: Zymoseptoria tritici, 48 h
# Outline: as §1
# [11] = Collectotrichum graminicola, growth inhibition at 48 hours vs 2% DMSO control, read-out: Concentration at 90% Inhibition Cg
# [12] = Collectotrichum graminicola, growth inhibition vs 2% DMSO control at 48 hours, read-out: Concentration at 90% Inhibition Cg
# [13] = Botrtyis cinerea, growth inhibition at 48 hours vs 2% DMSO control, read-out: Concentration at 90% Inhibition Bc
# [14] = Botrtyis cinerea, growth inhibition vs 2% DMSO control at 48 hours, read-out: Concentration at 90% Inhibition Bc
# [15] = growth inhibition at 48 hours vs 2% DMSO control, read-out: Concentration at 90% Inhibition Pc
# [16] = growth inhibition vs 2% DMSO control at 48 hours, read-out: Concentration at 90% Inhibition Pc
# [17] = Table 3a, ATCC 90028, 3 replicates, MIC recorded at 48 h, read-out: MIC, C. albicans ATCC 90028
# [18] = Table 3b (additional results), ATCC 90028, 3 replicates, MIC recorded at 48 h, read-out: MIC, C. albicans ATCC 90028
# [19] = Table 3a, ATCC 22019, 3 replicates, MIC recorded at 48 h, read-out: MIC, C. parapsilosis ATCC 22019
# [20] = Table 3b (additional results), ATCC 22019, 3 replicates, MIC recorded at 48 h, read-out: MIC, C. parapsilosis ATCC 22019
# [21] = mycelial plugs, growth inhibition at 48 hours vs 2% DMSO control, read-out: Concentration at 90% Inhibition Rs
# [22] = mycelial plugs, growth inhibition vs 2% DMSO control at 48 hours, read-out: Concentration at 90% Inhibition Rs
# [23] = Diplodia maydis, growth inhibition at 48 hours vs 2% DMSO control, read-out: Concentration at 90% Inhibition Dm
# [24] = Diplodia maydis, growth inhibition vs 2% DMSO control at 48 hours, read-out: Concentration at 90% Inhibition Dm
# [25] = Septoria tritici, growth inhibition at 48 hours vs 2% DMSO control, read-out: Concentration at 90% Inhibition St
# [26] = Septoria tritici, growth inhibition vs 2% DMSO control at 48 hours, read-out: Concentration at 90% Inhibition St
# [27] = read-out: Concentration at 90% Inhibition Cg, Collectotrichum graminicola, growth inhibition at 48 hours vs 2% DMSO control
# [28] = read-out: Concentration at 90% Inhibition Cg, Collectotrichum graminicola, growth inhibition vs 2% DMSO control at 48 hours
# [29] = read-out: Concentration at 90% Inhibition Bc, Botrtyis cinerea, growth inhibition at 48 hours vs 2% DMSO control
# [30] = read-out: Concentration at 90% Inhibition Bc, Botrtyis cinerea, growth inhibition vs 2% DMSO control at 48 hours
# [31] = read-out: Concentration at 90% Inhibition Pc, Phytophthora capsici, growth inhibition at 48 hours vs 2% DMSO control
# [32] = read-out: Concentration at 90% Inhibition Pc, Phytophthora capsici, growth inhibition vs 2% DMSO control at 48 hours
# [33] = read-out: MIC, C. albicans ATCC 90028, Table 3a, 3 replicates, MIC recorded at 48 h
# [34] = read-out: MIC, C. albicans ATCC 90028, Table 3b (additional results), 3 replicates, MIC recorded at 48 h
# [35] = read-out: MIC, C. parapsilosis ATCC 22019, Table 3a, 3 replicates, MIC recorded at 48 h
# [36] = read-out: MIC, C. parapsilosis ATCC 22019, Table 3b (additional results), 3 replicates, MIC recorded at 48 h
# [37] = read-out: Concentration at 90% Inhibition Rs, Rhizoctonia solani, mycelial plugs, growth inhibition at 48 hours vs 2% DMSO control
# [38] = read-out: Concentration at 90% Inhibition Rs, Rhizoctonia solani, mycelial plugs, growth inhibition vs 2% DMSO control at 48 hours
# [39] = read-out: Concentration at 90% Inhibition Dm, Diplodia maydis, growth inhibition at 48 hours vs 2% DMSO control
# [40] = read-out: Concentration at 90% Inhibition Dm, Diplodia maydis, growth inhibition vs 2% DMSO control at 48 hours
# [41] = read-out: Concentration at 90% Inhibition St, Septoria tritici, growth inhibition at 48 hours vs 2% DMSO control
# [42] = read-out: Concentration at 90% Inhibition St, Septoria tritici, growth inhibition vs 2% DMSO control at 48 hours
# human (hACC2), sequence (O00763 whole entry): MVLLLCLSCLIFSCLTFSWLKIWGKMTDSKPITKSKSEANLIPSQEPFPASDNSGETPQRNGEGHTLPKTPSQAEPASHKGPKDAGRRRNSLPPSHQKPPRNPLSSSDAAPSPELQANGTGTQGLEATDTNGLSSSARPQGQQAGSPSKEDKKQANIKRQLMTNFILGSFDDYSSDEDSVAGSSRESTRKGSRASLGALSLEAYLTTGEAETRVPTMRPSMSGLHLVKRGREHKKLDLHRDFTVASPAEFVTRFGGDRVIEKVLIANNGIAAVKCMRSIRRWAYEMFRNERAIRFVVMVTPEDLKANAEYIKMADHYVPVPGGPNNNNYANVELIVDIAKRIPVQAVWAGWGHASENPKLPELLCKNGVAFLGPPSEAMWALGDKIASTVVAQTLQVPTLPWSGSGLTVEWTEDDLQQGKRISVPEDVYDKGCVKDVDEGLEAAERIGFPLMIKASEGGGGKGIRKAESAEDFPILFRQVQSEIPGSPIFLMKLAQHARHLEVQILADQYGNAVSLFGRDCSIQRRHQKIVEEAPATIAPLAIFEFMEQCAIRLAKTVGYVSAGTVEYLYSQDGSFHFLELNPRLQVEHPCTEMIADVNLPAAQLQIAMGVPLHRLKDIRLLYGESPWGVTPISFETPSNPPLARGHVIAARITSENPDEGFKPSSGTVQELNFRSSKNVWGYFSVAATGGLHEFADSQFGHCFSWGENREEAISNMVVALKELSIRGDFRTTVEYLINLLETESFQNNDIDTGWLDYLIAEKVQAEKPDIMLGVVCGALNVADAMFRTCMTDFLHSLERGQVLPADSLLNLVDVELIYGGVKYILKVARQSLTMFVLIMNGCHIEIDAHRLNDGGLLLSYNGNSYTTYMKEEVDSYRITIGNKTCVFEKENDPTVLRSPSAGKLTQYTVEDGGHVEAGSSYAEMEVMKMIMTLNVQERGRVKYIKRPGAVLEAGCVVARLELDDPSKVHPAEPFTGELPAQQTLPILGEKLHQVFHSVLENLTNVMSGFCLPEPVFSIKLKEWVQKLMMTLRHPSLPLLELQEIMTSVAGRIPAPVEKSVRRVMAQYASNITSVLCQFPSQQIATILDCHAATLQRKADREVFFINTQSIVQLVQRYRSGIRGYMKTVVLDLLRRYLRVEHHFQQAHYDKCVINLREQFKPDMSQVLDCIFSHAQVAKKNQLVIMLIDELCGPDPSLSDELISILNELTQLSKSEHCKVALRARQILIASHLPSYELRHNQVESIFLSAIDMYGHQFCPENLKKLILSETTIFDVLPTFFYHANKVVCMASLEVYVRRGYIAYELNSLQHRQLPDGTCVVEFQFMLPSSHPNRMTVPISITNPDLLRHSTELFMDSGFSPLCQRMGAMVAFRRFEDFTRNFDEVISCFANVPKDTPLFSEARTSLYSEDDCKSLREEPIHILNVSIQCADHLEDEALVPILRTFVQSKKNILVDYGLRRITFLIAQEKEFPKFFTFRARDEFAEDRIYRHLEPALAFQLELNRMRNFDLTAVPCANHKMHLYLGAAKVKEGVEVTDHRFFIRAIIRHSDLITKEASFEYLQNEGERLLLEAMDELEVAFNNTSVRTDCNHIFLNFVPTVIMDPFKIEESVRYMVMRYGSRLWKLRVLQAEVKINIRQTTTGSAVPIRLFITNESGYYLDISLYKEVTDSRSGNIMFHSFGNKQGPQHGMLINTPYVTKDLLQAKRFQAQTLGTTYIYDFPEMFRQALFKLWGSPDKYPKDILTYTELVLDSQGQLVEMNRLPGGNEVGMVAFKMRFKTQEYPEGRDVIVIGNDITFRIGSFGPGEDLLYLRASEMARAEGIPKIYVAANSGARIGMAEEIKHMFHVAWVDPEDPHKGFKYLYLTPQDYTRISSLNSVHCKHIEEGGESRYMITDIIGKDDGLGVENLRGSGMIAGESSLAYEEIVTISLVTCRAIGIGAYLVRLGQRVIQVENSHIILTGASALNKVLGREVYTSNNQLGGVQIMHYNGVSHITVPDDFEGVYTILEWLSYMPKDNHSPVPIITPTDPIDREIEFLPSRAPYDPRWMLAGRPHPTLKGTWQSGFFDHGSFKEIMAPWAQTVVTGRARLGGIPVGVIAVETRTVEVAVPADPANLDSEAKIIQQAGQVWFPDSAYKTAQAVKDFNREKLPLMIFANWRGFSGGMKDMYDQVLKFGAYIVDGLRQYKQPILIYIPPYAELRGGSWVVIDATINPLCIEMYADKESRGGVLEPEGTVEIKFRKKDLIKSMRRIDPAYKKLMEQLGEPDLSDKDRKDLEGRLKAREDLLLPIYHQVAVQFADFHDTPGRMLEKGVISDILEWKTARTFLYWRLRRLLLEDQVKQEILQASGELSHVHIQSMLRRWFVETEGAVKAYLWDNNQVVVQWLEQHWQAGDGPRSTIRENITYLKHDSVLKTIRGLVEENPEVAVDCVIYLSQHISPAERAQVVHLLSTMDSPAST
# fungal (fACC2), sequence (Q00955 whole entry): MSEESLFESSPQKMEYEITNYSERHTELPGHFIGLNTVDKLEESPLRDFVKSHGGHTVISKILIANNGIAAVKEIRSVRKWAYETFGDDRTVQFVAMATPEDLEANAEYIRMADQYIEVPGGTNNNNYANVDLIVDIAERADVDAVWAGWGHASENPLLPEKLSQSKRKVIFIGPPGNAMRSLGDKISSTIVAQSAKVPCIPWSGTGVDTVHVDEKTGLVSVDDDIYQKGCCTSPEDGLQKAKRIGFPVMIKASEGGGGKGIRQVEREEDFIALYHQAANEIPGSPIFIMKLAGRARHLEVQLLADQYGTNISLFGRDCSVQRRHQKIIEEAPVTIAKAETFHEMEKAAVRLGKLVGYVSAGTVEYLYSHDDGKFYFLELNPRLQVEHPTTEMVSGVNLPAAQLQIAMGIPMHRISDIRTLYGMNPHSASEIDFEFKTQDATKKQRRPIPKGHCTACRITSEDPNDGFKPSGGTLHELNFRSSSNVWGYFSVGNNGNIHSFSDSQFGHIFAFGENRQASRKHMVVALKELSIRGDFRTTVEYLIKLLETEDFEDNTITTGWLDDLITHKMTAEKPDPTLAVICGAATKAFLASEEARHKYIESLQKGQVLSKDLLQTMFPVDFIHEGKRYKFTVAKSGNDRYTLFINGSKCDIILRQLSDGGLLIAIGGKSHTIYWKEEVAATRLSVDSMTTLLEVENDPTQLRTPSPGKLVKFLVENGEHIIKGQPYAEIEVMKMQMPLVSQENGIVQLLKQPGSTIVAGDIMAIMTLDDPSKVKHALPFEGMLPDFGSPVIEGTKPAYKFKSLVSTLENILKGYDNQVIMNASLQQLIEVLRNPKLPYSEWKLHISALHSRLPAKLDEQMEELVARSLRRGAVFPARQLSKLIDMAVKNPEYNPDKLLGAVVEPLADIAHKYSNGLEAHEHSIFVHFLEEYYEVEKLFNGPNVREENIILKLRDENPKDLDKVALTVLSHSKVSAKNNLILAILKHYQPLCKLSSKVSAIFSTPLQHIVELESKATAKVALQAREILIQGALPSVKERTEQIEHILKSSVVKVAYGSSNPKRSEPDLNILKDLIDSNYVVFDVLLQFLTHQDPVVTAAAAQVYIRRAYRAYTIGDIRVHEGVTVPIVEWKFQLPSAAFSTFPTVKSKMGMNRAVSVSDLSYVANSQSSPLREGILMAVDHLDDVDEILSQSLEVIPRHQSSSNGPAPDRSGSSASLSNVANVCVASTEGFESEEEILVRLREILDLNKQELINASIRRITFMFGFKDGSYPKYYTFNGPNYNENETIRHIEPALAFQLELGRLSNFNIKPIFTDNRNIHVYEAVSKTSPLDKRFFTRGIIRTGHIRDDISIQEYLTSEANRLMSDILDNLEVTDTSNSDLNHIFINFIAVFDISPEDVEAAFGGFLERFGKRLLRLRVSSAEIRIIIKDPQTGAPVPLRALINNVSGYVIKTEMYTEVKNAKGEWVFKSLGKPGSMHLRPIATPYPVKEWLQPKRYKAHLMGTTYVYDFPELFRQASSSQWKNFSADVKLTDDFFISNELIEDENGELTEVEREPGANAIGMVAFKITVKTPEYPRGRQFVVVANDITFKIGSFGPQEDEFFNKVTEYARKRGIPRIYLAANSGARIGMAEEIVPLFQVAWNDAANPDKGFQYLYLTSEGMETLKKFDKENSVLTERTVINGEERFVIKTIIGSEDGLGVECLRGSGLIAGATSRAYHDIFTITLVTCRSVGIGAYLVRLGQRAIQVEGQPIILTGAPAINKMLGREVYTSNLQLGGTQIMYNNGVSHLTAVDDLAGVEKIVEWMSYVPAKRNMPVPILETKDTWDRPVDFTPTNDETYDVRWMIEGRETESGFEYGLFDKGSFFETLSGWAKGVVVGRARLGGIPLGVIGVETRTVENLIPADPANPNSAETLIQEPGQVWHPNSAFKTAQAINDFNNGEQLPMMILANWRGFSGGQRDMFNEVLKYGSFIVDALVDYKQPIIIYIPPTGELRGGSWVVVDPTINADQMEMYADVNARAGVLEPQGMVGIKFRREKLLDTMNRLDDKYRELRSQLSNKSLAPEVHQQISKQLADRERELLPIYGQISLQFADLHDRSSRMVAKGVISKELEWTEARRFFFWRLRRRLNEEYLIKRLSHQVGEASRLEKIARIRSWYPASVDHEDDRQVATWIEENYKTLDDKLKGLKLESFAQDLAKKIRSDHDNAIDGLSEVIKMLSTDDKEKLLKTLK
Structure (SMILES),"IC90 [1, 11]","IC90 [1, 12]","IC90 [2, 13]","IC90 [2, 14]","IC90 [3, 15]","IC90 [3, 16]","MIC [4, 17]","MIC [4, 18]","MIC [5, 19]","MIC [5, 20]","IC90 [6, 21]","IC90 [6, 22]","IC90 [7, 23]","IC90 [7, 24]",IC50 ([8]; Table 2a),"IC50 ([8]; Table 2b, additional results)",IC50 ([9]; Table 2a),"IC50 ([9]; Table 2b, additional results)","IC90 [10, 25]","IC90 [10, 26]",other results
"COc1ccc(F)cc1[C@H](Cn1c(=O)n(C(C)(C)C(N)=O)c(=O)c2c(C)c(-n3nccn3)sc21)OC(C)C [Compound I-2, (R)-2-(1-(2-(5-fluoro-2-methoxyphenyl)-2-isopropoxyethyl)-5-methyl-2,4-dioxo-6-(2H-1,2,3-triazol-2-yl)-1,4-dihydrothieno[2,3-d]pyrimidin-3(2H)-yl)-2-methylpropanamide]",2 µg/mL,2 µg/mL,2 µg/mL,2 µg/mL,> 50 µg/mL,> 50 µg/mL,2.1 to 4 µg/mL,1.01 to 2 µg/mL,2.1 to 4 µg/mL,> 4.01 µg/mL,0.08 µg/mL,0.08 µg/mL,2 µg/mL,2 µg/mL,1 to 5 nM,1 to 5 nM,1 to 5 nM,1 to 5 nM,> 50 µg/mL,> 50 µg/mL,
"CCNC(=O)C(C)(C)n1c(=O)c2c(C)c(-n3nccn3)sc2n(C[C@H](OC(C)C)c2cc(F)ccc2OC)c1=O [Compound I-3, (R)—N-ethyl-2-(1-(2-(5-fluoro-2-methoxyphenyl)-2-isopropoxyethyl)-5-methyl-2,4-dioxo-6-(2H-1,2,3-triazol-2-yl)-1,4-dihydrothieno[2,3-d]pyrimidin-3(2H)-yl)-2-methylpropanamide]",,,,,,,,,,,,,,,1 to 5 nM,1 to 5 nM,5 to 10 nM,5 to 10 nM,,,"IC90 [1, 27]: 0.4 µg/mL; IC90 [1, 28]: 0.4 µg/mL; IC90 [2, 29]: 0.4 µg/mL; IC90 [2, 30]: 0.4 µg/mL; IC90 [3, 31]: > 50 µg/mL; IC90 [3, 32]: > 50 µg/mL; MIC [4, 33]: 1.1 to 2 µg/mL; MIC [4, 34]: 1.01 to 2 µg/mL; MIC [5, 35]: 1.1 to 2 µg/mL; MIC [5, 36]: 2.01 to 4 µg/mL; IC90 [6, 37]: 0.08 µg/mL; IC90 [6, 38]: 0.08 µg/mL; IC90 [7, 39]: 0.4 µg/mL; IC90 [7, 40]: 0.4 µg/mL; IC90 [10, 41]: 10 µg/mL; IC90 [10, 42]: > 50 µg/mL"
"COc1ccc(F)cc1[C@H](Cn1c(=O)n(C(C)(C)C(=O)NC(C)C)c(=O)c2c(C)c(-n3nccn3)sc21)OC(C)C [Compound I-4, (R)-2-(1-(2-(5-fluoro-2-methoxyphenyl)-2-isopropoxyethyl)-5-methyl-2,4-dioxo-6-(2H-1,2,3-triazol-2-yl)-1,4-dihydrothieno[2,3-d]pyrimidin-3(2H)-yl)-N-isopropyl-2-methylpropanamide]",,,,,,,,,,,,,,,1 to 5 nM,1 to 5 nM,5 to 10 nM,5 to 10 nM,,,"IC90 [1, 27]: 0.08 µg/mL; IC90 [1, 28]: 0.08 µg/mL; IC90 [2, 29]: 0.08 µg/mL; IC90 [2, 30]: 0.08 µg/mL; IC90 [3, 31]: > 50 µg/mL; IC90 [3, 32]: > 50 µg/mL; MIC [4, 33]: 0.25 to 1 µg/mL; MIC [4, 34]: 0.25 to 1 µg/mL; MIC [5, 35]: 0.25 to 1 µg/mL; MIC [5, 36]: 1.01 to 2 µg/mL; IC90 [6, 37]: 0.08 µg/mL; IC90 [6, 38]: 0.08 µg/mL; IC90 [7, 39]: 0.08 µg/mL; IC90 [7, 40]: 0.08 µg/mL; IC90 [10, 41]: 2 µg/mL; IC90 [10, 42]: 10 µg/mL"
"COc1ccc(F)cc1[C@H](Cn1c(=O)n(C(C)(C)C(=O)N2CCCC2)c(=O)c2c(C)c(-n3nccn3)sc21)OC(C)C [Compound I-7, (R)-1-(2-(5-fluoro-2-methoxyphenyl)-2-isopropoxyethyl)-5-methyl-3-(2-methyl-1-oxo-1-(pyrrolidin-1-yl)propan-2-yl)-6-(2H-1,2,3-triazol-2-yl)thieno[2,3-d]pyrimidine-2,4(1H,3H)-dione]",0.08 µg/mL,0.08 µg/mL,0.4 µg/mL,0.4 µg/mL,> 50 µg/mL,> 50 µg/mL,1.1 to 2 µg/mL,0.25 to 1 µg/mL,1.1 to 2 µg/mL,1.01 to 2 µg/mL,0.08 µg/mL,0.08 µg/mL,0.08 µg/mL,0.08 µg/mL,1 to 5 nM,1 to 5 nM,5 to 10 nM,5 to 10 nM,10 µg/mL,> 50 µg/mL,
